In US5049559A, “Thieno-triazolo-diazepine derivatives useful as anti-ischemic agents” (priority 1989, dated 1991):

Legend:
[1] = Global ischemia on gerbils; type: in vivo; details: Meriones unguiculatus, 168 h, carotides clamped 10 minutes, hippocampes one week later, 3H-PK 11195, percentage of protection compared to control
Method: 3) Global ischemia on gerbils For this test, males gerbils were anaesthetized with brietal at the doses of 35 mg/kg IP; thereafter, both carotides were clamped for 10 minutes, then the clamping was released. Treated animals received each 10 mg/kg of the compounds of one of the examples. One week later, the animals were killed and both hippocampes were taken, weighed and frozen at -80° C. After crushing with 1 ml of TRIS-HCl pH 7.4 for 30 seconds, aliquots of each 50 μl of this preparation were incubed in each 1 ml of TRIS-HCl buffer containing ^3 H-PK 11195 at 2 nM (90 Ci/mmole, NENE, Germany) for 1 hour at 25° C. For each preparation, 3 determinations were made. The density of omega 3 sites (marked by the specific ^3 H-PK 11195 marker) are expressed in f-moles of PK 11195/mg of fresh tissues and converted in percentage of protection compared to control.

benzodiazepine receptors = experiment: Inhibition of the binding to benzodiazepine receptors; details: rat brains, 1 hour 30 minutes at 4° C., tracers 3H-RO-15-1788 and 3H-RO-5-4864, Table I, read-out: BDZ receptors
Source text: 2) Inhibition of the binding to benzodiazepine receptors
The interest of the previous experimentation depends on the results obtained in this experimentation: as a compound of the invention has a benzodiazepine like structure, it is important to check whether the specific benzodiazepine activity would not appear at the dose where platelet aggregation was inhibited.
Therefore, this experimentation has been conducted according to the method of MOHLER H. and RICHARD J. G. Agonist and antagonist benzodiazepine receptor interaction in vitro, Nature, vol. 294, 763-765, 1981.
This experimentation was conducted on rat brains incubated 1 hour 30 minutes at 4° C. using ^3 H-RO-15-1788 and ^3 H-RO-5-4864 (NEN) as tracers and […] and RO-5-4864 as reference antagonists.
The results in molecular concentration are reported in the table I, on the right hand column.

[2] = system: platelet aggregation induced by PAF; experiment: Inhibition of platelet aggregation induced by PAF; type: cell-based; details: Oryctolagus cuniculus, male New Zealand rabbits, Table I
Method: 1) Inhibition of platelet aggregation induced by PAF
This experimentation was conducted according to the method of R. KINLOUGH. RATHBONE, J. P. CAZENAVE, M. PACKHAM and F. MUSTARD, Lab. Invest. 48, 98, 1980. In this test, New Zealand rabbits were used (male New Zealand rabbits of an average weight of 5 kg).
The determinations are made on a chrono-log Coultronics aggregometer, at […] coupled with a graphic recorder; the results of these determinations (in molecular concentration) are reported on the table I on the central column.

| SMILES | inhibition in vivo at 10 mg/kg [1] [%] | IC50 (benzodiazepine receptors) [nM] | IC50 [2] [nM] |
| --- | --- | --- | --- |
| Cc1nnc2n1-c1sc3c(c1C(c1ccccc1Cl)=NC2)CCN(C(=O)CSC(C)C)C3 [Example 1, 6-(2-chlorophenyl)-9-(isopropylthiomethylcarbonyl)-7,8,9,10-tetrahydro-1-methyl-4H-pyrido [4',3':4,5] thieno [3,2-f] 1,2,4-triazolo [4,3-a] 1,4-diazepine] | 54.2 | 6700 | 25.3 |
| Cc1nnc2n1-c1sc3c(c1C(c1ccccc1Cl)=NC2)CCN(C(=S)CSC(C)C)C3 [Example 2, 6-(2-chlorophenyl)-9-(isopropylthiomethyl-thiocarbonyl)-7,8,9,10-tetrahydro-1-methyl-4H-pyrido [4',3':4,5] thieno [3,2-f] 1,2,4-triazolo [4,3-a] 1,4-diazepine] | 36.3 | 48200 | 28.1 |
| Cc1nnc2n1-c1sc3c(c1C(c1ccccc1Cl)=NC2)CCN(C(=O)CSC(C)(C)C)C3 [Example 3, 6-(2-chlorophenyl)-9-(t.butylthiomethyl-carbonyl)-7,8,9, 10-tetrahydro-1-methyl-4H-pyrido [4',3':4,5] thieno [3,2-f] 1,2,4-triazolo[4,3-a] 1,4-diazepine] | 34.3 | 2300 | 16.8 |
| Cc1nnc2n1-c1sc3c(c1C(c1ccccc1Cl)=NC2)CCN(C(=S)CSC(C)(C)C)C3 [Example 4, 6-(2-chlorophenyl)-9-(t.butylthiomethyl-thiocarbonyl)-7,8,9, 10-tetrahydro-1-methyl-4H-pyrido [4',3':4,5] thieno [3,2-f] 1,2,4-triazolo[4,3-a] 1,4-diazepine] | 38.1 | 1550 | 497 |
| CCCCCCCCCCCCCCCCSCC(=O)N1CCc2c(sc3c2C(c2ccccc2Cl)=NCc2nnc(C)n2-3)C1 [Example 5, 6-(2-chlorophenyl)-9-(hexadecylthiomethyl-carbonyl)-7,8,9, 10-tetrahydro-1-methyl-4H-pyrido [4',3':4,5] thieno [3,2-f] 1,2,4-triazolo[4,3-a] 1,4-diazepine] | 29.4 | 121 | 7.43 |
| CCCCCCCCCCCCCCCCSCC(=S)N1CCc2c(sc3c2C(c2ccccc2Cl)=NCc2nnc(C)n2-3)C1 [Example 6, 6-(2-chlorophenyl)-9-(hexadecylthiomethyl-thiocarbonyl); 7,8,9, 10-tetrahydro-1-methyl-4H-pyrido [4',3':4,5] thieno [3,2-f] 1,2,4-triazolo[4,3-a] 1,4-diazepine] | 27.8 | 910 | 9.46 |
| Cc1nnc2n1-c1sc3c(c1C(c1ccccc1Cl)=NC2)CCN(C(=O)CSc1ccccc1)C3 [Example 7, 6-(2-chlorophenyl)-9-(phenyl-thiomethyl-carbonyl)-7,8,9, 10-tetrahydro-1-methyl-4H-pyrido [4',3':4,5] thieno [3,2-f] 1,2,4-triazolo[4,3-a] 1,4-diazepine] | 14.8 | 2100 | 511 |
| Cc1nnc2n1-c1sc3c(c1C(c1ccccc1Cl)=NC2)CCN(C(=S)CSc1ccccc1)C3 [Example 8, 6-(2-chorophenyl)-9-(phenyl-thiomethyl-thiocarbonyl)-7,8,9, 10-tetrahydro-1-methyl-4H-pyrido [4',3':4,5] thieno [3,2-f] 1,2,4-triazolo[4,3-a] 1,4-diazepine] | 26.2 | 7330 | 10.5 |
| COc1ccc(SCC(=O)N2CCc3c(sc4c3C(c3ccccc3Cl)=NCc3nnc(C)n3-4)C2)cc1 [Example 9, 6-(2-chlorophenyl)-9-(4-methoxyphenylthiomethyl-carbonyl)-7,8,9, 10-tetrahydro-1-methyl-4H-pyrido [4',3':4,5] thieno [3,2-f] 1,2,4-triazolo[4,3-a] 1,4-diazepine] | 31.2 | 2700 | 33.7 |
| COc1ccc(SCC(=S)N2CCc3c(sc4c3C(c3ccccc3Cl)=NCc3nnc(C)n3-4)C2)cc1 [Example 10, 6-(2-chlorophenyl)-9-(4-methoxyphenylthiomethyl-thiocarbonyl)-7,8,9, 10-tetrahydro-1-methyl-4H-pyrido [4',3':4,5] thieno [3,2-f] 1,2,4-triazolo[4,3-a] 1,4-diazepine] | 10.3 | 66000 | 171 |
| COc1ccc(SCC(=O)N2CCc3c(sc4c3C(c3ccccc3Cl)=NCc3nnc(C)n3-4)C2)cc1OC [Example 11, 6-(2-chlorophenyl)-9-(3,4-dimethoxyphenylthiomethyl-carbonyl)-7,8,9, 10-tetrahydro-1-methyl-4H-pyrido [4',3':4,5] thieno [3,2-f] 1,2,4-triazolo[4,3-a] 1,4-diazepine] | 46.5 | 1400 | 26.4 |
| COc1ccc(SCC(=S)N2CCc3c(sc4c3C(c3ccccc3Cl)=NCc3nnc(C)n3-4)C2)cc1OC [Example 12, 6-(2-chlorophenyl)-9-(3,4-dimethoxyphenylthiomethyl-thiocarbonyl)-7,8,9, 10-tetrahydro-1-methyl-4H-pyrido [4',3':4,5] thieno [3,2-f] 1,2,4-triazolo [4,3-a] 1,4-diazepine] | 34.1 | 870 | 31.4 |
| COc1cc(SCC(=O)N2CCc3c(sc4c3C(c3ccccc3Cl)=NCc3nnc(C)n3-4)C2)cc(OC)c1OC [Example 13, 6-(2-chlorophenyl)-9-(3,4,5-trimethoxyphenylthiomethylcarbonyl)-7,8,9, 10-tetrahydro-1-methyl-4H-pyrido [4',3':4,5] thieno [3,2-f] 1,2,4-triazolo[4,3-a] 1,4-diazepine] | 32.1 | 55000 | 18.5 |
| COc1cc(SCC(=S)N2CCc3c(sc4c3C(c3ccccc3Cl)=NCc3nnc(C)n3-4)C2)cc(OC)c1OC [Example 14, 6-(2-chlorophenyl)-9-(3,4,5-trimethoxyphenylthiomethyl-thiocarbonyl)-7,8,9, 10-tetrahydro-1-methyl-4H-pyrido [4',3':4,5] thieno [3,2-f] 1,2,4-triazolo [4,3-a] 1,4-diazepine] | 19.7 | 1500 | 9.22 |
| COc1ccc(SCC(=O)N2CCc3c(sc4c3C(c3ccccc3Cl)=NCc3nnc(C)n3-4)C2)c(OC)c1OC [Example 15, 6-(2-chlorophenyl)-9-(2,3,4-trimethoxyphenylthiomethyl-carbonyl)-7,8,9, 10-tetrahydro-1-methyl-4H-pyrido [4',3':4,5] thieno [3,2-f] 1,2,4-triazolo[4,3-a] 1,4-diazepine] | 35.8 | 3600 | 120 |
| COc1ccc(SCC(=S)N2CCc3c(sc4c3C(c3ccccc3Cl)=NCc3nnc(C)n3-4)C2)c(OC)c1OC [Example 16, 6-(2-chlorophenyl)-9-(2,3,4-trimethoxyphenylthiomethylthiocarbonyl)-7,8,9, 10-tetrahydro-1-methyl-4H-pyrido [4',3':4,5] thieno [3,2-f] 1,2,4-triazolo [4,3-a] 1,4-diazepine] | 29.3 | 600 | 53.5 |
| Cc1nnc2n1-c1sc3c(c1C(c1ccccc1Cl)=NC2)CCN(C(=O)CSc1ccc(C(C)(C)C)cc1)C3 [Example 17, 6-(2-chlorophenyl)-9-(4-t.butylphenylthiomethyl-carbonyl)-7,8,9, 10-tetrahydro-1-methyl-4H-pyrido [4',3':4,5] thieno [3,2-f] 1,2,4-triazolo[4,3-a] 1,4-diazepine] | 11.1 | 4700 | 8.75 |
| Cc1nnc2n1-c1sc3c(c1C(c1ccccc1Cl)=NC2)CCN(C(=S)CSc1ccc(C(C)(C)C)cc1)C3 [Example 18, 6-(2-chlorophenyl)-9-(4-t.butylphenylthiomethyl-thiocarbonyl)-7,8,9, 10-tetrahydro-1-methyl-4H-pyrido [4',3':4,5] thieno [3,2-f] 1,2,4-triazolo[4,3-a] 1,4-diazepine] | 12.6 | 44100 | 23 |
